According to PubChem BioAssay (NCI):
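Assay format: 96-well plates, 48-hour exposure. The concentration for full growth arrest is given as TGI.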

How the values were obtained:
Assay in all cases: NCI tumour cell line growth inhibition, 48 h
SN12C renal = tested on: SN12C renal
HL-60(TB) leukemia = tested on: HL-60(TB) leukemia
SK-OV-3 ovarian = tested on: SK-OV-3 ovarian
SR leukemia = tested on: SR leukemia
NCI/ADR-RES ovarian = tested on: NCI/ADR-RES ovarian
LOX IMVI melanoma = tested on: LOX IMVI melanoma
SF-268 CNS = tested on: SF-268 CNS
HCT-15 colon = tested on: HCT-15 colon
SK-MEL-5 melanoma = tested on: SK-MEL-5 melanoma
K-562 leukemia = tested on: K-562 leukemia
M14 melanoma = tested on: M14 melanoma
IGROV1 ovarian = tested on: IGROV1 ovarian
ACHN renal = tested on: ACHN renal
MDA-MB-231 breast = tested on: MDA-MB-231 breast
NCI-H460 lung = tested on: NCI-H460 lung
MDA-MB-435 = tested on: MDA-MB-435
KM12 colon = tested on: KM12 colon
T-47D breast = tested on: T-47D breast
UACC-62 melanoma = tested on: UACC-62 melanoma
OVCAR-3 ovarian = tested on: OVCAR-3 ovarian
NCI-H226 lung = tested on: NCI-H226 lung
UO-31 renal = tested on: UO-31 renal
HT29 colon = tested on: HT29 colon
OVCAR-4 ovarian = tested on: OVCAR-4 ovarian
HS 578T breast = tested on: HS 578T breast
SF-539 CNS = tested on: SF-539 CNS
NCI-H23 lung = tested on: NCI-H23 lung
COLO 205 colon = tested on: COLO 205 colon
U251 CNS = tested on: U251 CNS
SK-MEL-2 melanoma = tested on: SK-MEL-2 melanoma
PC-3 prostate = tested on: PC-3 prostate
OVCAR-8 ovarian = tested on: OVCAR-8 ovarian
MALME-3M melanoma = tested on: MALME-3M melanoma
SW-620 colon = tested on: SW-620 colon
TK-10 renal = tested on: TK-10 renal
SNB-19 CNS = tested on: SNB-19 CNS
MCF7 breast = tested on: MCF7 breast
HOP-62 NSCLC = tested on: HOP-62 NSCLC
MDA-N = tested on: MDA-N
SK-MEL-28 melanoma = tested on: SK-MEL-28 melanoma
786-0 renal = tested on: 786-0 renal
OVCAR-5 ovarian = tested on: OVCAR-5 ovarian
HCT-116 colon = tested on: HCT-116 colon
RXF 393 renal = tested on: RXF 393 renal
HOP-92 NSCLC = tested on: HOP-92 NSCLC
A549 NSCLC = tested on: A549 NSCLC
CCRF-CEM leukemia = tested on: CCRF-CEM leukemia
DU-145 prostate = tested on: DU-145 prostate
A498 renal = tested on: A498 renal
RPMI-8226 leukemia = tested on: RPMI-8226 leukemia
HCC-2998 colon = tested on: HCC-2998 colon
UACC-257 melanoma = tested on: UACC-257 melanoma
BT-549 breast = tested on: BT-549 breast
SNB-75 CNS = tested on: SNB-75 CNS
EKVX NSCLC = tested on: EKVX NSCLC
NCI-H522 lung = tested on: NCI-H522 lung
CAKI-1 renal = tested on: CAKI-1 renal
SF-295 CNS = tested on: SF-295 CNS
MOLT-4 leukemia = tested on: MOLT-4 leukemia
DLD-1 colon = tested on: DLD-1 colon
KM20L2 colon = tested on: KM20L2 colon
SNB-78 CNS = tested on: SNB-78 CNS
LXFL 529 NSCLC = tested on: LXFL 529 NSCLC

With COC(=O)/C=C1/OC(c2ccccc2)=CC1=O the TGI (SN12C renal) was 38.9 µM, the TGI (HL-60(TB) leukemia) was 6.14 µM and the TGI (SK-OV-3 ovarian) was greater than 94.4 µM. For the same molecule, the TGI (SR leukemia) was greater than 60.8 µM, the TGI (NCI/ADR-RES ovarian) was 58.7 µM and the TGI (LOX IMVI melanoma) was 30 µM. For the same molecule, the TGI (SF-268 CNS) was 44.7 µM, the TGI (HCT-15 colon) was 30.1 µM and the TGI (SK-MEL-5 melanoma) was 51.3 µM. For the same molecule, the TGI (K-562 leukemia) was 44.6 µM, the TGI (M14 melanoma) was 51.5 µM and the TGI (IGROV1 ovarian) was 33.9 µM. It also gave a TGI (ACHN renal) greater than 56 µM, a TGI (MDA-MB-231 breast) of 31.4 µM and a TGI (NCI-H460 lung) of 43.5 µM. It also gave a TGI (MDA-MB-435) of 35.5 µM, a TGI (KM12 colon) of 32.4 µM and a TGI (T-47D breast) of 49.9 µM. The TGI (UACC-62 melanoma) was 40 µM, the TGI (OVCAR-3 ovarian) was 39.4 µM and the TGI (NCI-H226 lung) was 67.3 µM. The TGI (UO-31 renal) was 31.7 µM, the TGI (HT29 colon) was 39 µM and the TGI (OVCAR-4 ovarian) was 31.2 µM. For the same molecule, the TGI (HS 578T breast) was 65.9 µM, the TGI (SF-539 CNS) was 39.8 µM and the TGI (NCI-H23 lung) was 42.9 µM. For the same molecule, the TGI (COLO 205 colon) was 29.5 µM, the TGI (U251 CNS) was 32.1 µM and the TGI (SK-MEL-2 melanoma) was 47.9 µM. It also gave a TGI (PC-3 prostate) of 40.2 µM, a TGI (OVCAR-8 ovarian) of 35.8 µM and a TGI (MALME-3M melanoma) of 34.9 µM. For the same molecule, the TGI (SW-620 colon) was 32.3 µM, the TGI (TK-10 renal) was 37.2 µM and the TGI (SNB-19 CNS) was 32 µM. The TGI (MCF7 breast) was 25.4 µM, the TGI (HOP-62 NSCLC) was 44.7 µM and the TGI (MDA-N) was 34.1 µM. For the same molecule, the TGI (SK-MEL-28 melanoma) was greater than 58 µM, the TGI (786-0 renal) was 27.9 µM and the TGI (OVCAR-5 ovarian) was 36.9 µM. For the same molecule, the TGI (HCT-116 colon) was 33.2 µM, the TGI (RXF 393 renal) was 27.7 µM and the TGI (HOP-92 NSCLC) was 52.8 µM. For the same molecule, the TGI (A549 NSCLC) was greater than 82.9 µM, the TGI (CCRF-CEM leukemia) was greater than 61.2 µM and the TGI (DU-145 prostate) was 19.4 µM. The TGI (A498 renal) was 18.7 µM, the TGI (RPMI-8226 leukemia) was 23.2 µM and the TGI (HCC-2998 colon) was 33.5 µM. It also gave a TGI (UACC-257 melanoma) greater than 52.7 µM, a TGI (BT-549 breast) of 32 µM and a TGI (SNB-75 CNS) of 30.9 µM. For the same molecule, the TGI (EKVX NSCLC) was greater than 62.2 µM, the TGI (NCI-H522 lung) was 39.3 µM and the TGI (CAKI-1 renal) was 33.9 µM. It also gave a TGI (SF-295 CNS) of 21.8 µM and a TGI (MOLT-4 leukemia) of 17.3 µM.
COC(=O)CC(CC(=O)C(=O)OC)C(=O)OC (stereo not drawn) was tested, and the TGI (SN12C renal) was greater than 100 µM, the TGI (HL-60(TB) leukemia) was greater than 100 µM and the TGI (DLD-1 colon) was greater than 100 µM. For the same molecule, the TGI (SK-OV-3 ovarian) was greater than 100 µM, the TGI (LOX IMVI melanoma) was greater than 100 µM and the TGI (HCT-15 colon) was greater than 100 µM. It also gave a TGI (SK-MEL-5 melanoma) greater than 100 µM, a TGI (K-562 leukemia) greater than 100 µM and a TGI (M14 melanoma) greater than 100 µM. It also gave a TGI (IGROV1 ovarian) greater than 100 µM, a TGI (ACHN renal) greater than 100 µM and a TGI (NCI-H460 lung) greater than 100 µM. It also gave a TGI (KM20L2 colon) greater than 100 µM, a TGI (KM12 colon) greater than 100 µM and a TGI (UACC-62 melanoma) greater than 100 µM. It also gave a TGI (OVCAR-3 ovarian) greater than 100 µM, a TGI (NCI-H226 lung) greater than 100 µM and a TGI (UO-31 renal) greater than 100 µM. The TGI (HT29 colon) was greater than 100 µM, the TGI (SF-539 CNS) was greater than 100 µM and the TGI (NCI-H23 lung) was greater than 100 µM. It also gave a TGI (COLO 205 colon) greater than 100 µM, a TGI (U251 CNS) greater than 100 µM and a TGI (SK-MEL-2 melanoma) greater than 100 µM. It also gave a TGI (OVCAR-8 ovarian) greater than 100 µM, a TGI (MALME-3M melanoma) greater than 100 µM and a TGI (SW-620 colon) greater than 100 µM. It also gave a TGI (TK-10 renal) greater than 100 µM, a TGI (SNB-19 CNS) greater than 100 µM and a TGI (HOP-62 NSCLC) greater than 100 µM. The TGI (SK-MEL-28 melanoma) was greater than 100 µM, the TGI (786-0 renal) was greater than 100 µM and the TGI (SNB-78 CNS) was greater than 100 µM. For the same molecule, the TGI (OVCAR-5 ovarian) was greater than 100 µM, the TGI (HCT-116 colon) was greater than 100 µM and the TGI (RXF 393 renal) was greater than 100 µM. The TGI (HOP-92 NSCLC) was greater than 100 µM, the TGI (A549 NSCLC) was greater than 100 µM and the TGI (CCRF-CEM leukemia) was greater than 100 µM. For the same molecule, the TGI (A498 renal) was greater than 100 µM, the TGI (LXFL 529 NSCLC) was greater than 100 µM and the TGI (RPMI-8226 leukemia) was greater than 100 µM. The TGI (HCC-2998 colon) was greater than 100 µM, the TGI (UACC-257 melanoma) was greater than 100 µM and the TGI (SNB-75 CNS) was greater than 100 µM. For the same molecule, the TGI (EKVX NSCLC) was greater than 100 µM, the TGI (CAKI-1 renal) was greater than 100 µM and the TGI (SF-295 CNS) was greater than 100 µM. The TGI (MOLT-4 leukemia) was greater than 100 µM.
